Data as given in PMC5378332, “Molecular actions of two synthetic brassinosteroids, iso-carbaBL and 6-deoxoBL, which cause altered physiological activities between Arabidopsis and rice” (PLoS ONE, 2017).

What was measured:
rice BRI1 LRR17-ID-LRR18 = target: T1, rice BRI1 LRR17-ID-LRR18 (Oryza sativa, UniProt Q942F3); assay: competition with BPCS photoaffinity crosslinking, anti-biotin immunoblot; format: binding; conditions: dose-dependent competition; GST-normalised
T1 construct: extracellular LRR17-island domain-LRR18 fragment, amino acids 484-600; N-terminal GST fusion from pGEX6P-1, GST kept; glutathione-Sepharose purified
T1 sequence (Q942F3 484-600): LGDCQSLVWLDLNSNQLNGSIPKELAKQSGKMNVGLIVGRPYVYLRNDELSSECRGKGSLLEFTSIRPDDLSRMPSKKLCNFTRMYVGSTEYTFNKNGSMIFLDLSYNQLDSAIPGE

[1] = target: T2, Arabidopsis BRI1 LRR21-ID-LRR22 (Arabidopsis thaliana, UniProt O22476); assay: as above; format: binding; conditions: dose-dependent competition; GST-normalised
T2 construct: extracellular LRR21-island domain-LRR22 fragment, amino acids 556-673; N-terminal GST fusion from pGEX6P-1, GST kept; glutathione-Sepharose purified
T2 sequence (O22476 556-673): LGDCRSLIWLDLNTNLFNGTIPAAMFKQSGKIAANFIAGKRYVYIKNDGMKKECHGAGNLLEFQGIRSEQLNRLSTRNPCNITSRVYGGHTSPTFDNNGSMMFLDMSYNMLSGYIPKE

| SMILES | competition with BPCS photoaffinity crosslinking, anti-biotin immunoblot (rice BRI1 LRR17-ID-LRR18) | competition with BPCS photoaffinity crosslinking, anti-biotin immunoblot [1] |
| --- | --- | --- |
| CC(C)[C@H](C)[C@@H](O)[C@H](O)[C@@H](C)[C@H]1CC[C@H]2[C@@H]3CC(=O)C[C@H]4C[C@@H](O)[C@@H](O)C[C@]4(C)[C@H]3CC[C@]12C [iso-carbaBL] | decreased the binding of BPCS not only to Arabidopsis BRI1, but also to rice BRI1 | decreased the binding of BPCS not only to Arabidopsis BRI1, but also to rice BRI1 |
| CC(C)[C@H](C)[C@@H](O)[C@H](O)[C@@H](C)[C@H]1CC[C@H]2[C@@H]3COC(=O)[C@H]4C[C@H](O)[C@H](O)C[C@]4(C)[C@H]3CC[C@]12C [BL, (22R,23R,24S)-2α,3α,22,23-tetrahydroxy-24-methyl-B-homo7-oxa-5α-cholestan-6-one] | BL, the positive control, inhibited the binding of BPCS to both Arabidopsis and rice BRI1 |  |
